According to patent US12365687B2 (Hoffmann-La Roche Inc., priority 2021, dated 2025):

What was measured:
[1] = target: human GABAA α2β2γ1 receptor (Homo sapiens (Human), UniProt P47869+Q8N1C3); test: Radioligand binding assay for γ1-containing GABAA subtypes, [3H]RO7239181 competition (α2β2γ1)
[2] = target: α2β2γ1 GABAA receptor subtype (Homo sapiens (Human), UniProt P47869+Q8N1C3); test: Two-electrode voltage clamp electrophysiology in Xenopus oocytes expressing GABAA receptors (modulation of GABA EC20 current); assay type: cell-based; settings: for Efficacy (GABA)%: % modulation of GABA EC20 = 100*(Fold increase-1), α2β2γ1 oocytes, compound at approx. 30-fold Ki; for Fold increase h-GABA-A α2β2γ1 oocyte @ 30-fold Ki: Xenopus oocytes expressing α2β2γ1, compound at approx. 30-fold its Ki α2β2γ1, GABA EC20 current
In short: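 Two-electrode voltage clamp at −80 mV, room temperature, 3-5 days after mRNA injection into oocytes. GABA applied at EC20 for 1.5 min, twice, with compound during second application; at least 3 oocytes per concentration. Efficacy = extremum of point-by-point current ratio, expressed as 100×(fold increase−1).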

[3] = target: human GABAA α1β3γ2 receptor (Homo sapiens (Human), UniProt P14867+P18507); test: Radioligand binding assay for γ2-containing GABAA subtypes, [3H]Flumazenil competition (α1β3γ2); settings: for γ2/γ1 Selectivity Ratio: Ki α1β3γ2 (nM)/Ki α2β2γ1 (nM); for LogSel: Log[Ki α1β3γ2 (nM)/Ki α2β2γ1 (nM)]
[4] = target: human GABAA α1β2γ1 receptor (Homo sapiens (Human), UniProt P14867+Q8N1C3); test: Radioligand binding assay for γ1-containing GABAA subtypes, [3H]RO7239181 competition (α1β2γ1)
Method: The affinity of compounds at GABAA γ1 subunit-containing receptors was measured by competition for [^3H]RO7239181 (67.3 Ci/mmol; Roche) binding to membranes from HEK293F cells (ThermoFisher R79007) expressing human (transiently transfected) receptors of composition α5β2γ1, α2β2γ1, α1β2γ1.
Harvested pellets from HEK293F cells expressing the different GABAA receptor subtypes were resuspended in Mannitol Buffer pH 7.2-7.4 (Mannitol 0.29 M, Triethylamine 10 mM, Acetic acid 10 mM, EDTA 1 mM plus protease inhibitors (20 tablets Complete, Roche Diagnostics Cat. No. 05 056 489 001 per liter)), washed two times and then resuspended at 1:10 to 1:15 dilution in the same buffer. Cell disruption was performed by stirring the suspension in a Parr vessel #4637 at 435 psi for 15 minutes, and then the suspensions were centrifuged at 1000×g for 15 minutes at 4° C. (Beckman Avanti J-HC; rotor JS-4.2). The supernatant (S1) was transferred in a 2 l Schott flask and the pellet (P1) was resuspended with Mannitol Buffer up to 175 ml. The resuspended pellet was transferred into a 250 ml Corning centrifugal beaker and centrifuged at 1500×g for 10 minutes at 4° C. (Beckman Avanti J-HC; rotor JS-4.2). The supernatant (S1) was then transferred in the 2 l Schott flask and the pellet was discarded. The supernatants (S1) were centrifuged in 500 ml Beckman polypropylene centrifugal beaker at 15′000×g for 30 minutes at 4° C. (Beckman Avanti J-20 XP; rotor JLA-10.500). The pellet (P2) was resuspended with Mannitol Buffer 1:1 and frozen at −80° C. The supernatant (S2) was centrifuged in 100 ml Beckman polypropylene centrifugal tubes at 48000×g for 50 minutes at 4° C. (Beckman Avanti J-20 XP; rotor JA-18). The supernatant (S3) was discarded and the pellet (P3) was resuspended with 1:1 Mannitol Buffer. The P2 and P3 protein concentration was determined with the BIORAD Standard assay method with bovine serum albumin as standard and measured on the NANO-Drop 1000. The membrane suspension was aliquots (500 μl per tube) and stored at −80° C. until required.
Membrane homogenates were resuspended and polytronised (Polytron PT1200E Kinematica AG) in Potassium Phosphate 10 mM, KCl 100 mM binding buffer at pH 7.4 to a final assay concentration determined with a previous experiment.
Assays were incubated to equilibrium for 1 hour at 4° C. and then, membranes were filtered onto unifilter (96-well white microplate with bonded GF/C filters preincubated 20-50 minutes in 0.3% Polyethylenimine) with a Filtermate 196 harvester (Packard BioScience) and washed 4 times with cold Potassium Phosphate 10 mM pH 7.4, KCl 100 mM binding buffer. After anhydrousing, filter-retained radioactivity was detected by liquid scintillation counting. Ki values were calculated using Excel-Fit (Microsoft) and are the means of two determinations.

[5] = target: human GABAA α5β2γ1 receptor (Homo sapiens (Human), UniProt P31644+Q8N1C3); test: Radioligand binding assay for γ1-containing GABAA subtypes, [3H]RO7239181 competition (α5β2γ1)
[6] = Ki h-GABAA α2β2γ1, [3H]RO7239181 competition binding, human GABAA α2β2γ1
[7] = Ki h-GABAA α2β2γ1, displacement of [3H]RO7239181, membranes of HEK293F cells expressing human receptors, means of two determinations

SMILES	Ki [1, 6] [nM]	Ki [1, 7] [nM]	Efficacy (GABA)% [2] [%]	Fold increase h-GABA-A α2β2γ1 oocyte @ 30-fold Ki [2]	Ki [3] [nM]	γ2/γ1 Selectivity Ratio [3]	LogSel [3]	Ki [4] [nM]	Ki [5] [nM]
C[C@@H]1N=C(c2c(F)cccc2F)c2c(ccc(C(F)(F)F)c2Cl)-n2nc(C(=O)NN(C)C)nc21 [Example 117, (4S)-7-chloro-6-(2,6-difluorophenyl)-N′,N′,4-trimethyl-8-(trifluromethyl)-4H-[1,2,4]triazolo[1,5-a][1,4]benzodiazepine-2-carbohydrazide]	20	20	92	1.92	5510	276.4	2.44	99.2	3.14
COC1CN(C(=O)c2cn3c(n2)CN=C(c2ccccc2F)c2c-3ccc(Cl)c2Cl)C1 [Example 1, (7,8-dichloro-6-(2-fluorophenyl)-4H-benzo[f]imidazo[1,2-a][1,4]diazepin-2-yl)(3-methoxyazetidin-1-yl)methanone]	25	25	77	1.77	638	25.5	1.41	35.1	3.19
Cc1nnc(-c2nc3n(n2)-c2ccc(C(F)(F)F)c(Cl)c2C(c2ncccc2F)=N[C@H]3C)o1 [Example 144, 2-[(4S)-7-chloro-6-(3-fluoro-2-pyridyl)-4-methyl-8-(trifluoromethyl)-4H-[1,2,4]triazolo[1,5-a][1,4]benzodiazepin-2-yl]-5-methyl-1,3,4-oxadiazole]	73.5	73.5	169	2.69	13500	183.6	2.26	179	8.3
C[C@@H]1N=C(c2c(F)cccc2F)c2c(ccc(Cl)c2Cl)-n2nc(C(=O)NCCO)nc21 [Example 54, (4S)-7,8-dichloro-6-(2,6-difluorophenyl)-N-(2-hydroxyethyl)-4-methyl-4H-[1,2,4]triazolo[1,5-a][1,4]benzodiazepine-2-carboxamide]	4.4	4.38	80	1.80	581	132.7	2.12	15.2	0.97
C[C@@H]1N=C(c2c(F)cccc2F)c2c(ccc(Cl)c2Cl)-n2nc(C(=O)N3CCC3)nc21 [Example 14, azetidin-1-yl-[(4S)-7,8-dichloro-6-(2,6-difluorophenyl)-4-methyl-4H-[1,2,4]triazolo[1,5-a][1,4]benzodiazepin-2-yl]methanone]	7.1	7.1	57	1.57	773	108.2	2.03	8.5	1.11
Cc1nc2n(n1)-c1ccc(Cl)c(Cl)c1C(c1c(F)cccc1F)=N[C@H]2C [Example 21, (4S)-7,8-dichloro-6-(2,6-difluorophenyl)-2,4-dimethyl-4H-[1,2,4]triazolo[1,5-a][1,4]benzodiazepine]	4.4	4.43	67	1.67	244	55.0	1.74	8.3	0.69
C[C@@H]1N=C(c2c(F)cccc2F)c2c(ccc(C(F)(F)F)c2Cl)-n2nc(C(=O)N3CCC3)nc21 [Example 26, azetidin-1-yl-[(4S)-7-chloro-6-(2,6-difluorophenyl)-4-methyl-8-(trifluoromethyl)-4H-[1,2,4]triazolo[1,5-a][1,4]benzodiazepin-2-yl]methanone]	8.6	8.6	75	1.75	1840	213.1	2.33	38.1	2.48
C[C@H](O)CNC(=O)c1nc2n(n1)-c1ccc(C(F)(F)F)c(Cl)c1C(c1c(F)cccc1F)=N[C@H]2C [Example 109, (4S)-7-chloro-6-(2,6-difluorophenyl)-N-[(2S)-2-hydroxypropyl]-4-methyl-8-(trifluoromethyl)-4H-[1,2,4]triazolo[1,5-a][1,4]benzodiazepine-2-carboxamide]	12.1	12.1	126	2.26	3120	258.7	2.41	40.8	3.07
COC1CN(C(=O)c2nc3n(n2)-c2ccc(Cl)c(Cl)c2C(c2c(F)cccc2F)=N[C@H]3C)C1 [Example 16, [(4S)-7,8-dichloro-6-(2,6-difluorophenyl)-4-methyl-4H-[1,2,4]triazolo[1,5-a][1,4]benzodiazepin-2-yl]-(3-methoxyazetidin-1-yl)methanone]	5.2	5.2	52	1.52	571	109.6	2.04	9.2	1.2
C[C@@H]1N=C(c2c(F)cccc2F)c2c(ccc(C(F)(F)F)c2Cl)-n2nc(C(=O)N3CC(O)C3)nc21 [Example 58, (3-hydroxyazetidin-1-yl)-[(4S)-7-chloro-6-(2,6-difluorophenyl)-4-methyl-8-(trifluoromethyl)-4H-[1,2,4]triazolo[1,5-a][1,4]benzodiazepin-2-yl]methanone]	7	7	112	2.12	1090	156.8	2.20	23.9	2.3
C[C@@H]1N=C(c2ncccc2F)c2c(ccc(C(F)(F)F)c2Cl)-n2nc(C(=O)N3CCC3)nc21 [Example 85, azetidin-1-yl-[(4S)-7-chloro-6-(3-fluoro-2-pyridyl)-4-methyl-8-(trifluoromethyl)-4H-[1,2,4]triazolo[1,5-a][1,4]benzodiazepin-2-yl]methanone]	60.9	60.9	140	2.40	8860	145.5	2.16	224	8.51
COC1CN(C(=O)c2nc3n(n2)-c2ccc(C(F)(F)F)c(Cl)c2C(c2c(F)cccc2F)=N[C@H]3C)C1 [Example 23]	11.8	11.8	63	–	1140	96.8	–	29	1.63
